Assay results: patent US20040132079A1, “Assays relating to Toll-like receptor activity” (3M Innovative Properties Company, priority 2002, published 2004)

These molecules were tested against T1, human TLR6 (Homo sapiens, UniProt Q9Y2C9) (assay: Luciferase induction off of the IFN-α1 promoter in pIFN-α1-luc/pCI-TLR6 co-transfected Namalwa cells). Conditions: IRM compound 10 μM, 18 hours, compared to DMSO negative control, representative experiment.
T1 construct: expressed in transfected cells; host or cells: Namalwa cells (ATCC CRL-1432), co-transfected with pIFN-α1-luc and pCI-TLR6, G418-selected
T1 sequence (Q9Y2C9 32-796): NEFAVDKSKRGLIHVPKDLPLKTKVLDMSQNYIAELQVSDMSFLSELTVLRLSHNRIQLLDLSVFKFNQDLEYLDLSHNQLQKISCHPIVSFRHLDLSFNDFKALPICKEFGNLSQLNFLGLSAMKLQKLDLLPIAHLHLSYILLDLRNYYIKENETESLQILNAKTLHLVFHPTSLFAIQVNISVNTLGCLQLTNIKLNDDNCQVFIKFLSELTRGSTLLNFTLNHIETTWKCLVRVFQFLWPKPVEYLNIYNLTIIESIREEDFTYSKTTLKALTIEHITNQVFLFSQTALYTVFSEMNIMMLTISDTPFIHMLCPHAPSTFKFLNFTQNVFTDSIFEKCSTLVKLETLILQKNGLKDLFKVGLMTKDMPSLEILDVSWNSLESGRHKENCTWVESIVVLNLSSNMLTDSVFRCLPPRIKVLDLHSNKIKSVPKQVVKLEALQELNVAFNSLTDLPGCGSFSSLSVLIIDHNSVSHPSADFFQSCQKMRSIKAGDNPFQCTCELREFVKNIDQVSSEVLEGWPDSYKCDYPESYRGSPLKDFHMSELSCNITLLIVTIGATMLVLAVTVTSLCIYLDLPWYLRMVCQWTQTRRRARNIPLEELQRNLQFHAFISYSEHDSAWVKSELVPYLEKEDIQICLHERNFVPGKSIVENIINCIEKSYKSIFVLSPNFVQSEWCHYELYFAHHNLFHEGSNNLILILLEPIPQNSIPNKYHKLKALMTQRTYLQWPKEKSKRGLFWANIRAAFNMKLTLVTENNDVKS
Format: cell-based
Description: The vector pIFN-α1-luc was constructed by inserting BglII sites at both ends of the human IFN-α1 promoter (SEQ ID NO:21). The BglII sites were inserted into the IFN-α1 promoter and the sequence was amplified using the primer pair of SEQ ID NO:22 and SEQ ID NO:23. The amplified IFN-α1 promoter was cloned into the pGL3-Enhancing vector (Promega Corp., Madison, Wis.) at the BglII site.
The vector pCI-TLR6 was constructed by inserting SEQ ID NO:11 (GenBank Accession No. NM 006068), which includes the human TLR6 coding sequence, into the pCI-neo mammalian expression vector (Promega Corp.) at the vector's NheI and MluI restriction sites.
Burkitt's Lymphoma lymphoblastoid Namalwa cells (ATCC Accession No. CRL-1432) were grown by incubation in culture medium overnight. Cells were harvested by centrifugation in a tabletop centrifuge (1200 RPM for 5 minutes), and then resuspended in phosphate buffered sucrose to a concentration of 1.3×10^7 cells per milliliter.
For each transfection, a 750 μL aliquot of the cell suspension was placed in an electroporation cuvette with 4 mm gaps. 10 μg of the pIFN-α1-luc vector and 10 μg of the pCI-TLR6 vector were added to the electroporation cuvette. The cell and vector mixtures were incubated at room temperature for 5 minutes. The cells were electroporated using a BioRad Gene Pulser (BioRad Laboratories, Hercules, Calif.) set to at 500 μF capacitance and […], then incubated at room temperature for 5 minutes.
The electroporated cells were suspended in 10 mLs of culture medium and incubated overnight. Dead cells and debris were removed after 24 hours using a MACS Dead Cell Removal kit (Miltenyi Biotec, Auburn, Calif.). Cells were resuspended in 10 mLs of culture medium and incubated for an additional 24 hours.
Transfected cells were selected by adding G418 (Promega Corp., Madison, Wis.) to a final concentration of 1 mg/mL and incubating the cells for seven days.
The selected transfected cells were counted and resuspended to a concentration of 1×10^6 cell per mL in culture medium. 100 μl aliquots of cells were placed in the wells of a white-walled, white-bottomed 96-well plate (Corning, Inc. Corning, N.Y.). 1.0 μL of an IRM compound from Table 1 (prepared at 1 mM in 100% DMSO) was added to some cell aliquots so that the final concentration of IRM compound was 10 μM. As a positive control, some cell aliquots were incubated with Sendai virus instead of IRM compound. As a negative control, some cell aliquots were incubated with DMSO without IRM compound. In all cases, the cells were incubated for 18 hours.
The plates were equilibrated to room temperature before 1 volume of reconstituted LucLight Plus (Packard Instruments, Meriden, Conn.) was added to each aliquot of cells. Each well of the plate was read on an LJL Analyst (LJL Biosystems, Inc., Sunnyvale, Calif.) set with a 5 minute dark adapt. The data are expressed as the fold increase in luciferase induction off of the IFN-α1 promoter in cell aliquots incubated with the indicated stimulant compared to the negative control in which the cell aliquots were incubated with only DMSO.
`CCOCc1nc2c(N)nc3c(c2n1CC(C)(C)O)CCCC3` [IRM1, 4-amino-2-ethoxymethyl-α,α-dimethyl-6,7,8,9-tetrahydro-1H-imidazo[4,5-c]quinoline-1-ethanol] was tested, and the “Fold Increase in Luciferase Induction” value was 3.6 fold. With `Cc1nc2c(N)nc3ccccc3c2n1CC(C)(C)O` [IRM2, 4-amino-α,α,2-trimethyl-1H-imidazo[4,5-c]quinoline-1-ethanol] the “Fold Increase in Luciferase Induction” value was 2.7 fold. `CCCCc1nc2c(N)nc3ccccc3c2n1CCCCNS(C)(=O)=O` [IRM3, N-[4-(4-amino-2-butyl-1H-imidazo[4,5-c]quinolin-1-yl)butyl]methanesulfonamide] was tested, and the “Fold Increase in Luciferase Induction” value was 2.6 fold. With `Nc1nc2ccccc2c2c1ncn2CCOCCCc1cccnc1` [IRM4, 1-{2-[3-(3-pyridyl)-propoxy]ethyl}-1H-imidazo[4,5-c]quinolin-4-amine] the “Fold Increase in Luciferase Induction” value was 4.0 fold. In the case of `CCCCc1nc2c(N)nc3cccnc3c2n1CC(C)C` [IRM5, 2-butyl-1-(2-methylpropyl)-1H-imidazo[4,5-c][1,5]naphthyridin-4-amine], the “Fold Increase in Luciferase Induction” value is reported as 3.2 fold. For `CCCCc1nc2c(N)nc3c(c2n1CC(C)C)NCCC3` [IRM6, 2-butyl-6,7,8,9-tetrahydro-1-(2-methylpropyl)-1H-imidazo[4,5-c][1,5]naphthyridin-4-amine], the “Fold Increase in Luciferase Induction” value was 2.9 fold. `COCCc1nc2c(N)nc3ccccc3c2n1CCCCNC(=O)c1ccc(-n2cccc2)nc1` [IRM7, N^3-{4-[4-amino-2-(2-methoxyethyl)-1H-imidazo[4,5-c]quinolin-1-yl]butyl}-6-(1H-1-pyrrolyl)nicotinamide] was tested, and the “Fold Increase in Luciferase Induction” value was 3.2 fold. With `CCc1nc2c(N)nc3ccccc3c2n1CCCCCS(C)(=O)=O` [IRM8, 2-ethyl-1-[5-(methylsulfonyl)-pentyl]-1H-imidazo[4,5-c]quinolin-4-amine] the “Fold Increase in Luciferase Induction” value was 2.3 fold.
